Drawing on patent publication US7459434B2, “Peptide interacting with anti-apoptotic proteins of the Bcl-2 family” (Les Laboratories Servier, priority 2003, dated 2008), this text covers Kd for 1 sequence.

One experiment has as its target Bcl-XL (Homo sapiens, UniProt Q07817). As to the kind of experiment: Fluorescence polarisation, Kd of peptide with GST-Bcl-XL. To be noted: 15 nM peptide labelled with fluorescein at the N-terminal end; GST-Bcl-XL 1 nM to 5 μM; pH 7.4; FIG. 2; read-out: Kd obtained with Bcl-XL. Type of experiment: binding. On the procedure:
(§1) 2) Fluorescence Polarisation: Determination of the Kd of the Interaction Between the Peptide Obtained in Example 1 and the Anti-Apoptotic Protein
(§2) A 15 nM solution of the peptide obtained in Example 1 labelled with fluorescein at the N-terminal end is mixed with a solution containing the fusion protein GST-Bcl-XL or GST-Bcl-W at a concentration varying from 1 nM to 5 μM in a buffer containing Na2HPO4 20 mM pH 7.4, EDTA 1 mM, NaCl 50 mM, pluronic acid F-68 0.05%. The fluorescence polarisation is then measured by the En Vision apparatus (Packard Perkin-Elmer).
A general note: Fluorescence polarisation rises when a labelled molecule tumbles more slowly, as on binding a larger partner.

A further experiment deals with T1, Bcl-W (Homo sapiens, UniProt Q92843).
T1 sequence (Q92843 1-193): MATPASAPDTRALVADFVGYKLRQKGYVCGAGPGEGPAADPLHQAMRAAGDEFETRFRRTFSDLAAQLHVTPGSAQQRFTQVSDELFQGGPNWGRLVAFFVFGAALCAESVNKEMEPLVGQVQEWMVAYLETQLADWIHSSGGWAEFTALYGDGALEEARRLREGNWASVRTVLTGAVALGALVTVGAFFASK
The experiment in a line: Fluorescence polarisation, Kd of peptide with GST-Bcl-W. In kind it is binding. To be noted: 15 nM peptide labelled with fluorescein at the N-terminal end; GST-Bcl-W 1 nM to 5 μM; pH 7.4; FIG. 3; read-out: Kd obtained with Bcl-W. The procedure:
as §1, §2

No end group written: not given here.

Chain of Bcl-XL (Q07817 whole entry, species assumed): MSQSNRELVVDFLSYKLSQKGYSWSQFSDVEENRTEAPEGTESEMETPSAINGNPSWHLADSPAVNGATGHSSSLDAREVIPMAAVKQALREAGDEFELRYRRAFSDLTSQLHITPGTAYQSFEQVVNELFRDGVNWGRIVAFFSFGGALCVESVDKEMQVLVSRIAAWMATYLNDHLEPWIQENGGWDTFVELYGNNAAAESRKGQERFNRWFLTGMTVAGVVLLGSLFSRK

For orientation: Kd means the equilibrium constant for the complex coming apart. As to “DTRRSMVFARHLREVGDEFRSR [peptide obtained in Example 1]”, the Kd on Bcl-XL worked out at 215 nM; at Bcl-W it was 411 nM.
